Reference: US9617249B2, “Benzoheterocyclic anti-bacterial agents” (UNIVERSITY OF NOTRE DAME DU LAC, priority 2008, dated 2017)
Converted amounts (≈) assume the structure as drawn.

Legend:
Assay type in all cases: cell-based
[1] = tested on: Methicillin-resistant Staphylococcus aureus (MRSA); assay: MIC against MRSA
From the text: (§1) In embodiments, various molecules as described herein have surprising activity against MRSA. […] While this particular molecule has been tested previously, the present application is the first disclosure of this compound having activity against multi-drug resistant “super bug” strains. In addition, in accordance with an embodiment described herein, this compound and analogs thereof may be synthesized in high yields in just a single step. Further embodiments herein provide analogs of the afore-mentioned compounds and methods of making and using such compounds.
(§2) In accordance with an embodiment, in order to first broadly screen these compounds, an agar diffusion assay was employed to determine whether these compounds have any activity against a diverse array of organisms which include MRSA and VRE. […] FIG. 4 illustrates selectivity and potency of various benzimidazoles, benzthiazoles, and benzoxazoles against a panel of microorganisms including gram-positive bacteria, gram-negative bacteria, fungi, yeast, and mycobacteria. The minimum inhibition concentration at 90% is shown in micromolar concentration. […] Therefore many of the compounds had their MICs determined which reflected many of the findings of the diffusion assay. FIG. 5 illustrates the chemical structure, molecular weight, and chemical formula of most of the compounds of FIG. 4.

[2] = tested on: Vancomycin-Resistant Enterococcus (VRE); assay: MIC against VRE
From the text: as §1, §2

[3] = tested on: Gram-positive clinical isolate strains; assay: Potency and selectivity against panel of Gram-positive clinical isolate strains; conditions: Ciprofloxacin standard (FIG. 9)
From the text: (§3) FIG. 9 illustrates the potency and selectivity of ND-7901 against a panel of Gram-positive clinical isolate strains compared to a Ciprofloxacin standard in micrograms per milliliter. […] FIG. 10 illustrates the potency and selectivity of ND-7901 against a panel of Gram-negative clinical isolate strains compared to a Ciprofloxacin standard in micrograms per milliliter.

[4] = tested on: Gram-negative clinical isolate strains; assay: Potency and selectivity against panel of Gram-negative clinical isolate strains; conditions: Ciprofloxacin standard (FIG. 10)
From the text: as §3

Gram-positive strains = assay: MIC and MBC determinations against Gram-positive strains; conditions: most Gram-positive isolates (FIG. 11)
Method: FIG. 11 illustrates the minimum inhibitory concentration (MIC) and the minimum bactericidal concentration (MBC) determinations of ND-7901 to various Gram-positive strains. A series of broths were mixed with solutions of diluted drug an inoculum was applied. After incubation, the MIC was determined as the first concentration in which the growth of the organism has been inhibited. In contrast, the MBC was measured by inoculating the series of broths used for the MIC determination onto drug-free medium. The MBC is the first dilution at which growth is not observed. ND-7901 is bactericidal against most Gram-positive isolates.

[5] = tested on: methicillin-sensitive S. aureus (MSSA), ATCC 29213; assay: Time-kill assay; conditions: MSSA ATCC 29213, drug at various concentrations, Vancomycin as control (FIG. 12)
S. aureus strains [6] = assay: Mutational analysis by growth without selection and recovery on drug plates; conditions: overnight growth with no selection, drug plates at 2-4 times the MIC (FIG. 13)
From the text: FIG. 13 illustrates a mutational analysis of […] by growth of S. aureus strains overnight with no selection and recovery of resistant colonies on drug plates at 2-4 times the MIC value.

S. aureus strains [7] = assay: Mutational analysis by serial transfer experiments; conditions: 0.5-2 times the MIC, after 8 passages (FIG. 14)
Method: FIG. 14 illustrates the mutational analysis of ND-7901 by serial transfer experiments. As such, the S. aureus strains were grown with ND-7901 (0.5-2 times the MIC) added and passed serially until resistance was found.

| Structure (SMILES) | MIC [1] | MIC [2] | activity against Gram-positive isolates [3] | activity against Gram-negative isolates [4] | bactericidal character (MBC versus MIC) (Gram-positive strains) | kinetics of bacteria death (time-kill) [5] | spontaneous resistant mutants recovered (S. aureus strains [6]) | level of resistance after serial passage (S. aureus strains [7]) |
| --- | --- | --- | --- | --- | --- | --- | --- | --- |
| O=[N+]([O-])c1ccc(-c2nc3ccccc3[nH]2)o1 [nitrofuran benzimidazole] | 8 µM (≈ 1.83 µg/mL) | 16 µM (≈ 3.67 µg/mL) | – | – | – | – | – | – |
| O=[N+]([O-])c1ccc(-c2nc3cccc(O)c3[nH]2)o1 [ND-7901] | – | – | good activity | limited activity | bactericidal | rapid kinetics of bacteria death | no spontaneous mutants were recovered | very low level of resistance |
